Experimental data reported in patent publication US9610233B2, “Hair thickening compositions and methods of use” (The Procter & Gamble Company, priority 2013, dated 2017).

Tests used:
[1] = Measurement of Average Thickness Increase of single hair fibers; conditions: Sepigel 1.89%, Example 1 formula, fibers treated 10 minutes, dried overnight
Protocol: Measurement of Average Thickness Increase
• 1) Asian or Caucasian hair fibers (low-lift general population) are soaked in deionized water for 10 minutes, and allowed to equilibrate overnight in at Controlled Temperature and Humidity room (20 C, 50 RH). • 2) The single hair fibers are imaged with microscope and the diameter is measured using software for baseline measurement. • 3) The hair fibers are then treated with the hair care composition for 10 minutes to allow for saturation. The fibers are then removed and allowed to equilibrate and dry overnight. • 4) The next day, the fibers are imaged and measured for a final reading. For each experiment, untreated control and product treatment controls are ran, and at least 5 fibers are measured per treatment. • 5) In order to measure increase in thickness as a function of treatment, the […]. The average thickness increase is reported in the Table above, with measurements reported in micrometers. Viscosity Test Method

[2] = Viscosity Test Method (cone and plate viscometer/rheometer); type: physicochemical; conditions: Sepigel 1.89%
From the text: The hair care composition may have a viscosity of from about 2,000 cps to about 20,000 cps, alternatively from about 10,000 cps to about 15,000 cps. The viscosity of the hair care composition may be determined by a cone and plate viscometer/rheometer which measures the viscous drag resulting from the sample material contained in the gap between a rotating cone and a stationary plate. The geometry of the cone and plate may be such that the entire sample is subjected to a uniform shear rate. A Brookfield Rheometer RS, with Cone C75-1, 26.7° C. temperature, 2.5 mL sample size, at 2 res/sec for 3 minutes may be used.

Viscosity ([2]; composition with Resorcinol 0.5%): 14767 cps | Viscosity ([2]; composition with Resorcinol 1%): 12115 cps | Viscosity ([2]; composition with Resorcinol 2%): 13812 cps | Viscosity ([2]; composition with Resorcinol 5%): 12047 cps | Viscosity ([2]; composition with Resorcinol 8%): 10308 cps
SMILES: Oc1cccc(O)c1 [Resorcinol, 1,3-Dihydroxybenzene]
Average Thickness Increase ([1]; Resorcinol 0.5%): 4.2 μm | Average Thickness Increase ([1]; Resorcinol 1%): 3.9 μm | Average Thickness Increase ([1]; Resorcinol 2%): 13.5 μm | Average Thickness Increase ([1]; Resorcinol 5%): 10.7 μm | Average Thickness Increase ([1]; Resorcinol 8%): 10.3 μm
